Key:
Format in all cases: functional
[1] = tested on: Bacillus; experiment: Antibacterial activity against Bacillus proteus ATCC 13315 after 24 hrs by two-fold microbroth dilution method; conditions: ATCC 13315, 24 h
[2] = Antibacterial activity against Eberthella typhosa ATCC 14028 after 24 hrs by two-fold microbroth dilution method; conditions: ATCC 14028, 24 h
[3] = tested on: Staphylococcus aureus; experiment: Antibacterial activity against methicillin-resistant Staphylococcus aureus N315 after 24 hrs by two-fold microbroth dilution method; conditions: N315, 24 h
[4] = tested on: Staphylococcus aureus; experiment: Antibacterial activity against Staphylococcus aureus ATCC 25923 after 24 hrs by two-fold microbroth dilution method; conditions: ATCC 25923, 24 h
[5] = tested on: Bacillus spizizenii; experiment: Antibacterial activity against Bacillus subtilis ATCC 6633 after 24 hrs by two-fold microbroth dilution method; conditions: ATCC 6633, 24 h
[6] = tested on: Micrococcus luteus; experiment: Antibacterial activity against Micrococcus luteus ATCC 4698 after 24 hrs by two-fold microbroth dilution method; conditions: NCTC 2665, 24 h
[7] = tested on: Escherichia coli; experiment: Antibacterial activity against Escherichia coli JM109 after 24 hrs by two-fold microbroth dilution method; conditions: JM109, 24 h
[8] = tested on: Pseudomonas aeruginosa; experiment: Antibacterial activity against Pseudomonas aeruginosa ATCC 27853 after 24 hrs by two-fold microbroth dilution method; conditions: ATCC 27853, 24 h
[9] = tested on: Cyberlindnera jadinii; experiment: Antifungal activity against Candida utilis ATCC 9950 after 24 hrs by two-fold microbroth dilution method; conditions: Williopsis jadinii, ATCC 9950, 24 h
[10] = tested on: Aspergillus flavus; experiment: Antifungal activity against Aspergillus flavus ATCC 204304 after 24 hrs by two-fold microbroth dilution method; conditions: ATCC 204304, 24 h
[11] = tested on: Saccharomyces cerevisiae; experiment: Antifungal activity against Saccharomyces cerevisiae ATCC 9763 after 24 hrs by two-fold microbroth dilution method; conditions: ATCC 9763, 24 h
[12] = tested on: Candida albicans; experiment: Antifungal activity against Candida albicans ATCC 10231 after 24 hrs by two-fold microbroth dilution method; conditions: ATCC 10231, 24 h
[13] = tested on: Pichia norvegensis; experiment: Antifungal activity against Candida mycoderma ATCC 9888 after 24 hrs by two-fold microbroth dilution method; conditions: ATCC 9888, 24 h
[14] = tested on: HEp-2; experiment: Cytotoxicity against human Hep2 cells assessed as cell viability up to 125 ug/ml after 24 hrs by CCK8 assay relative to control
[15] = tested on: Pseudomonas aeruginosa; experiment: Potency index, ratio of chloromycin MIC to compound MIC for Pseudomonas aeruginosa ATCC 27853

O=C(N[C@H](CO)[C@H](O)c1ccc([N+](=O)[O-])cc1)C(Cl)Cl [CHLORAMPHENICOL]
8 µg/mL: MIC [4]
64 µg/mL: MIC [3] | MIC [6]
32 µg/mL: MIC [1] | MIC [2] | MIC [5]

CCn1c2ccc(C(=O)CCl)cc2c2cc(C(=O)CCl)ccc21
256 µg/mL: MIC [8] | MIC [4] | MIC [6] | MIC [9] | MIC [10]
128 µg/mL: MIC [11] | MIC [13]
512 µg/mL: MIC [1] | MIC [7] | MIC [2] | MIC [3] | MIC [5] | MIC [12]

CCn1c2ccc(-c3csc(N)n3)cc2c2cc(-c3csc(N)n3)ccc21
256 µg/mL: MIC [1] | MIC [8] | MIC [2] | MIC [4] | MIC [5] | MIC [10] | MIC [11]
512 µg/mL: MIC [3]
128 µg/mL: MIC [7] | MIC [6] | MIC [9]
64 µg/mL: MIC [12] | MIC [13]

CCCCCCCn1c2ccc(C(=O)CCl)cc2c2cc(C(=O)CCl)ccc21
256 µg/mL: MIC [13]
512 µg/mL: MIC [1] | MIC [7] | MIC [8] | MIC [2] | MIC [3] | MIC [4] | MIC [5] | MIC [6] | MIC [9] | MIC [10] | MIC [11] | MIC [12]

CCCCCn1c2ccc(C(=O)CCl)cc2c2cc(C(=O)CCl)ccc21
128 µg/mL: MIC [7] | MIC [8] | MIC [9] | MIC [10] | MIC [11]
512 µg/mL: MIC [1] | MIC [3] | MIC [5] | MIC [6]
256 µg/mL: MIC [2] | MIC [4] | MIC [12] | MIC [13]

CCCCCCCCCCCCCCCCCCn1c2ccc(-c3csc(N)n3)cc2c2cc(-c3csc(N)n3)ccc21
256 µg/mL: MIC [1] | MIC [2] | MIC [4] | MIC [5] | MIC [9] | MIC [10] | MIC [11] | MIC [12]
512 µg/mL: MIC [8] | MIC [3] | MIC [6] | MIC [13]
128 µg/mL: MIC [7]

CCCCn1c2ccc(C(=O)CCl)cc2c2cc(C(=O)CCl)ccc21
512 µg/mL: MIC [7] | MIC [8] | MIC [2] | MIC [11] | MIC [12]
256 µg/mL: MIC [1] | MIC [3] | MIC [4] | MIC [5] | MIC [6] | MIC [10]
128 µg/mL: MIC [9] | MIC [13]

CCCCCCCCCCCCCCCCn1c2ccc(-c3csc(N)n3)cc2c2cc(-c3csc(N)n3)ccc21
256 µg/mL: MIC [3] | MIC [4] | MIC [6] | MIC [11]
512 µg/mL: MIC [8] | MIC [2] | MIC [5] | MIC [12] | MIC [13]
128 µg/mL: MIC [1] | MIC [7] | MIC [9] | MIC [10]

CCCCCCCCn1c2ccc(-c3csc(N)n3)cc2c2cc(-c3csc(N)n3)ccc21
128 µg/mL: MIC [1]
256 µg/mL: MIC [10]
32 µg/mL: MIC [3]
512 µg/mL: MIC [7] | MIC [8] | MIC [2] | MIC [5] | MIC [6] | MIC [9] | MIC [11] | MIC [12] | MIC [13]
64 µg/mL: MIC [4]

OC(Cn1cncn1)(Cn1cncn1)c1ccc(F)cc1F [FLUCONAZOLE]
256 µg/mL: MIC [10]
8 µg/mL: MIC [9]
32 µg/mL: MIC [12] | MIC [13]
16 µg/mL: MIC [11]

CCCCCn1c2ccc(-c3csc(N)n3)cc2c2cc(-c3csc(N)n3)ccc21
85%: Activity [14]
256 µg/mL: MIC [1] | MIC [7] | MIC [5] | MIC [10]
64 µg/mL: MIC [4] | MIC [6] | MIC [13]
2 µg/mL: MIC [8]
128 µg/mL: MIC [2] | MIC [3] | MIC [9] | MIC [11] | MIC [12]
8: Ratio [15]
